Measurements: patent US10590106B2, “Certain chemical entities, compositions, and methods” (NeuPharma, Inc., priority 2012, dated 2020)

Experiments:
BRAF V600E = BRAF V600E (Homo sapiens (Human), UniProt P15056, V600E); test: Inhibitory activity against kinase BRAF V600E, Z'-LYTE method (Invitrogen); type: biochemical; settings: for inhibition at 1 µM: 1 μM compound, read-out: Inhibition (% inhibition at 1 μM) against BRAF V600E
Procedure: Inhibitory activities Inhibitory activities of compounds against BRAF, and BRAF V600E were measured by Invitrogen using Z′-LYTE® Method as briefly described in the following. 4× Test compounds are dissolved in 1% DMSO. […] ATP solutions are diluted to a 4×ATP working concentration in Kinase Buffer (50 mM HEPES pH 7.5, 0.01% BRIJ-35, 10 mM MgCl2, 1 mM EGTA). Reaction started by 30-second shaking of mixture consisting of 2.5 μL 4× test compound, […] and 2.5 μL 4×ATP Solution on Bar-coded Corning, low volume NBS, black 384-well plate (Corning Cat. #3676). Then the mixture was incubated for 60-minute at room temperature for the kinase reaction, followed by addition of 5 μL of a 1:1024 dilution of development reagent A and 30-second plate shake. The mixture was then incubated for another 60-minute at room temperature for development reaction. Fluorescence was read by plate reader. IC50 was calculated by plotting the concentration of compound vs the percentage of inhibition in treated wells using GraphPad Prism 5.
Table 2 and 3 show % inhibition at 1 μM of several compounds of the invention against BRAF and BRAF V600E, respectively, using Z′-LYTE® method.
The scale utilized in Table 4 is as follows: +++ less than 100 nM; and ++ greater than 100 nM.

A375 cells = test: Inhibition of cancer cell growth, MTT or MTS assay, A375; type: cell-based; settings: Homo sapiens, A-375; 72 h incubation
Procedure: (§1) Inhibition of cell growth by compounds was measured using MTT or MTS assay. Tumor cell lines were purchased from ATCC (American Type Culture Collection, Manassas, Va.). All cell lines were maintained in RPMI 1640 (Hyclone) supplemented with 10% fetal bovine serum (FBS, Hyclone), glutamine (2 mM, Hyclone), and antibiotics (penicillin 100 U/mL and streptomycin 50 μg/mL) at 37° C. in a humidified atmosphere of 5% CO2 in air. Taxol (as a positive control, Sigma) and compounds were dissolved in DMSO (Sigma), and the final concentration of DMSO in the medium was 1%. Tumor cells were plated in 96-well plates at densities of about 2000 (A375) or 4000 (A549 and Colo205) cells/well of a 96-well plate and allowed to adhere/grow for 24 h. They were then treated with various concentrations of drug and incubated for 72 h. For MTT method, medium was then removed by inverting and tapping the plates. 100 μL of MTT (0.5 mg/ml) was added to each well followed by an incubated at 37° C. for 4 h. MTT was then removed and 200 μL of DMSO was added to each well, and the ODs at 570 nm were measured after a 5 second shaking cycle in a 96-well spectrophotometer. For MTS method, 20 μL MTS (CellTiter 96 Aqueous One Solution, Promega) was added to each well followed by an incubated at 37° C. for 2-4 h, solutions were then directly put in a 96-well spectrophotometer, and the ODs at 490 nm were measured.
(§2) All concentrations of compounds were tested in triplicate and controls were averaged over 4 wells. IC50 was calculated by plotting the concentration of compound vs the percentage of inhibition in treated wells using GraphPad Prism 5. […] The scale utilized in Tables […] is as follows: +++ less than 1000 nM; ++ between 1000 nM and 5000 nM; and + greater than 5000 nM. The scale utilized in Table 8 is as follows: +++ less than 2000 nM; ++ between 2000 nM and 5000 nM; and + greater than 5000 nM.

A549 cells = test: Inhibition of cancer cell growth, MTT or MTS assay, A549; type: cell-based; settings: Homo sapiens, 72 h incubation
Procedure: as §1, §2

KDR (VEGFR2) = KDR (VEGFR2) (Homo sapiens (Human), UniProt P35968); test: Inhibitory activity against kinase KDR, Z'-LYTE method (Invitrogen); type: biochemical; settings: for inhibition at 1 µM: 1 μM compound, read-out: Inhibition (% inhibition at 1 μM) against KDR
Procedure: Inhibitory activities of compounds against KDR (VEGFR2) were also measured by Invitrogen using Z′-LYTE® Method as described above with the following modification. The 2× KDR (VEGFR2)/Tyr 01 mixture is prepared in 50 mM HEPES pH 7.5, 0.01% BRIJ-35, 10 mM MgCl2, 1 mM EGTA. The final 10 μL Kinase Reaction consists of 0.5-11.7 ng KDR (VEGFR2) and 2 μM Tyr 01 in 50 mM HEPES pH 7.5, 0.01% BRIJ-35, 10 mM MgCl2, 1 mM EGTA. After the 1 hour Kinase Reaction incubation, 5 μL of a 1:256 dilution of Development Reagent B is added.
The scale utilized in Table 5 is as follows: +++ less than 100 nM; and ++ greater than 100 nM

Sequence of KDR (VEGFR2) (P35968 20-1356): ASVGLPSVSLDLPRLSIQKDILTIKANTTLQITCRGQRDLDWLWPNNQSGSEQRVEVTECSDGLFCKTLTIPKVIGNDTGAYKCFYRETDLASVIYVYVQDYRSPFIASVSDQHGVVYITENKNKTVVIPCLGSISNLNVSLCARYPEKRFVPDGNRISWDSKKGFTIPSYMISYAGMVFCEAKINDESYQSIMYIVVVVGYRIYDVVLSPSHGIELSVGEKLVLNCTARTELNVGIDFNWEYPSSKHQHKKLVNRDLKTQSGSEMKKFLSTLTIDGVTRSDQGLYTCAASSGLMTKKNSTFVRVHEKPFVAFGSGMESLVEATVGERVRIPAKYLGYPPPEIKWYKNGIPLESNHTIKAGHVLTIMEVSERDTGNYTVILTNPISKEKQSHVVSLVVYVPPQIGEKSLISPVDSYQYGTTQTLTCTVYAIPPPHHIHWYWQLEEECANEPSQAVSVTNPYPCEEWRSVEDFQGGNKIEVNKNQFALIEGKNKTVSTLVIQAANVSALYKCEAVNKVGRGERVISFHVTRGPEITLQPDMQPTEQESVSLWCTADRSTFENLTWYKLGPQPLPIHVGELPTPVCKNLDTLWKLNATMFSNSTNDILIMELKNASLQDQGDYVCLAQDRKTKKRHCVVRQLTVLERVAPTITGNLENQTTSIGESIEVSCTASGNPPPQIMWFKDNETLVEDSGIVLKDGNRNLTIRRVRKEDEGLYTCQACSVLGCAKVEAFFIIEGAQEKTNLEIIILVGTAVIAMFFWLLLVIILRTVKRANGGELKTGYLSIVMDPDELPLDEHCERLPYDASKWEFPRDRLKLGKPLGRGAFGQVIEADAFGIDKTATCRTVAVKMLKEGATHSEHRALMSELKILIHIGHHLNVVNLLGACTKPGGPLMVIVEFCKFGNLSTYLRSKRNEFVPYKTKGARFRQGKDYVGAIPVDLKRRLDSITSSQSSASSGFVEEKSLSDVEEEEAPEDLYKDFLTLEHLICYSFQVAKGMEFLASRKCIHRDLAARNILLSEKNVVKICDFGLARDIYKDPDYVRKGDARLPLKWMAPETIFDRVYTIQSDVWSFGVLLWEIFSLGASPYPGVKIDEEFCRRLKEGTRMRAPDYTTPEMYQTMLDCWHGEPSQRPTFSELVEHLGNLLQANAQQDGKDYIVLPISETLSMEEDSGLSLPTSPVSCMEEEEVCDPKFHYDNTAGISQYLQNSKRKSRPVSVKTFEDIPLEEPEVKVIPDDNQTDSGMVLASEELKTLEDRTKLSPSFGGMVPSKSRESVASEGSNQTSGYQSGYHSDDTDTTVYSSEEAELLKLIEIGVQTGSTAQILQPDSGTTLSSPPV
Sequence of BRAF V600E (P15056 whole entry V600E): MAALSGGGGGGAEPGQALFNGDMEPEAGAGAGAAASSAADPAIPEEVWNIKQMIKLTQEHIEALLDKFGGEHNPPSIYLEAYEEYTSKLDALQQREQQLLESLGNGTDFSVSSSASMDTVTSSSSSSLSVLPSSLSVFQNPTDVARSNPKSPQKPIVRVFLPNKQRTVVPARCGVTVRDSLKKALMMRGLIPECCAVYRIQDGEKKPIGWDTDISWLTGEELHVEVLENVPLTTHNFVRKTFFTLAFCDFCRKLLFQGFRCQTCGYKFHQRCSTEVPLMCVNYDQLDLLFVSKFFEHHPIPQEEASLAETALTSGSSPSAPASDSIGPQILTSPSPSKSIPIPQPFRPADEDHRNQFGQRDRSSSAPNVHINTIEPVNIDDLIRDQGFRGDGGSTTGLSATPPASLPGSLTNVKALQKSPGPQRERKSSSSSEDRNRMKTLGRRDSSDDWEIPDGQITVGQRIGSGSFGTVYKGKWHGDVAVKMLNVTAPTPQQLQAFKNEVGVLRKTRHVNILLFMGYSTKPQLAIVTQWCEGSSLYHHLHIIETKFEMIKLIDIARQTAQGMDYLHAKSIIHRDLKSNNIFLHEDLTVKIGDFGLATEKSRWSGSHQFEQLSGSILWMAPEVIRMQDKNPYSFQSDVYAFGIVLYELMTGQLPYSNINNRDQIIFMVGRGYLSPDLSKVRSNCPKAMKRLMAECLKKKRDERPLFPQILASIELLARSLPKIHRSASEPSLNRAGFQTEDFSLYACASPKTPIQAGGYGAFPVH

SMILES	inhibition at 1 µM (BRAF V600E)	IC50 (A375 cells)	IC50 (A549 cells)	inhibition at 1 µM (KDR (VEGFR2))	IC50 (BRAF V600E)	IC50 (KDR (VEGFR2))
O=C(Nc1cc(F)cc(Oc2ccc3nccnc3c2)c1)c1ccc(Cl)c(C(F)(F)F)c1 [Compound C016, 4-chloro-N-(3-fluoro-5-(quinoxalin-6-yloxy)phenyl)-3-(trifluoromethyl)benzamide]	> 89%	> 5 µM	> 5 µM	–	–	–
O=C(Nc1cc(F)cc(Oc2ccc3nccnc3c2)c1)c1cccc(C(F)(F)F)c1 [Compound C015, N-(3-fluoro-5-(quinoxalin-6-yloxy)phenyl)-3-(trifluoromethyl)benzamide]	> 89%	> 5 µM	> 5 µM	< 70%	–	–
O=C(Nc1ccc(F)c(Oc2ccc3nccnc3c2)c1)c1cccc(C(F)(F)F)c1 [Compound C018, N-(4-fluoro-3-(quinoxalin-6-yloxy)phenyl)-3-(trifluoromethyl)benzamide]	> 89%	1 to 5 µM	> 5 µM	70 to 89%	–	–
O=C(Nc1cccc(F)c1)Nc1cc(F)cc(Oc2ccc3nccnc3c2)c1 [Compound C020, 1-(3-fluoro-5-(quinoxalin-6-yloxy)phenyl)-3-(3-fluorophenyl)urea]	70 to 89%	> 5 µM	2 to 5 µM	–	–	–
O=C(Nc1ccc(F)c(Oc2ccc3ncc(N4CCOCC4)nc3c2)c1)Nc1ccc(Cl)c(C(F)(F)F)c1 [Compound C009, 1-(4-chloro-3-(trifluoromethyl)phenyl)-3-(4-fluoro-3-((3-morpholinoquinoxalin-6-yl)oxy)phenyl)urea]	< 70%	< 1 µM	< 2 µM	> 89%	> 100 nM	> 100 nM
O=C(Nc1cc(F)cc(Oc2ccc3nccnc3c2)c1)c1cccc(F)c1 [Compound C014, 3-fluoro-N-(3-fluoro-5-(quinoxalin-6-yloxy)phenyl)benzamide]	70 to 89%	> 5 µM	> 5 µM	–	–	–
O=C(Nc1cc(F)cc(Oc2ccc3nccnc3c2)c1)Nc1ccc(Cl)c(C(F)(F)F)c1 [Compound C022, 1-(4-chloro-3-(trifluoromethyl)phenyl)-3-(3-fluoro-5-(quinoxalin-6-yloxy)phenyl)urea]	70 to 89%	< 1 µM	< 2 µM	70 to 89%	–	–
CCCS(=O)(=O)Nc1ccc(F)c(Oc2ccc3nccnc3c2)c1 [Compound C013, N-(4-fluoro-3-(quinoxalin-6-yloxy)phenyl)propane-1-sulfonamide]	–	> 5 µM	> 5 µM	–	–	–
CCCS(=O)(=O)Nc1ccc(F)c(Oc2ccc3ncc(N4CCOCC4)nc3c2)c1 [Compound C012, N-(4-fluoro-3-((3-morpholinoquinoxalin-6-yl)oxy)phenyl)propane-1-sulfonamide]	–	> 5 µM	> 5 µM	–	–	–

Results, then the compound that gave them:

inhibition at 1 µM (BRAF V600E)	IC50 (A375 cells)	IC50 (A549 cells)	inhibition at 1 µM (KDR (VEGFR2))	IC50 (BRAF V600E)	IC50 (KDR (VEGFR2))	SMILES
< 70%	1 to 5 µM	> 5 µM	–	–	–	O=C(Nc1ccc(Oc2ccc3nccnc3c2)cc1)c1cccc(F)c1 [Compound C077, 3-fluoro-N-(4-(quinoxalin-6-yloxy)phenyl)benzamide]
70 to 89%	1 to 5 µM	2 to 5 µM	> 89%	–	–	O=C(Nc1ccc(Oc2ccc3ncc(N4CCOCC4)nc3c2)cc1)Nc1ccc(F)c(C(F)(F)F)c1 [Compound C086, 1-(4-fluoro-3-(trifluoromethyl)phenyl)-3-(4-((3-morpholinoquinoxalin-6-yl)oxy)phenyl)urea]
70 to 89%	1 to 5 µM	> 5 µM	< 70%	–	–	O=C(Nc1ccc(F)c(C(F)(F)F)c1)Nc1ccc(Oc2ccc3nccnc3c2)cc1F [Compound C098, 1-(4-fluoro-3-(trifluoromethyl)phenyl)-3-(2-fluoro-4-(quinoxalin-6-yloxy)phenyl)urea]
> 89%	> 5 µM	> 5 µM	< 70%	–	–	O=C(Nc1cccc(F)c1)Nc1cc(F)cc(Oc2ccc3ncc(N4CCOCC4)nc3c2)c1 [Compound C031, 1-(3-fluoro-5-((3-morpholinoquinoxalin-6-yl)oxy)phenyl)-3-(3-fluorophenyl)urea]
70 to 89%	1 to 5 µM	2 to 5 µM	> 89%	–	–	O=C(Nc1ccc(Oc2ccc3ncc(N4CCOCC4)nc3c2)cc1)Nc1ccc(Cl)c(C(F)(F)F)c1 [Compound C084, 1-(4-chloro-3-(trifluoromethyl)phenyl)-3-(4-((3-morpholinoquinoxalin-6-yl)oxy)phenyl)urea]
70 to 89%	1 to 5 µM	2 to 5 µM	70 to 89%	–	–	O=C(Nc1cc(F)cc(Oc2ccc3ncc(N4CCOCC4)nc3c2)c1)c1ccc(Cl)c(C(F)(F)F)c1 [Compound C029, 4-chloro-N-(3-fluoro-5-((3-morpholinoquinoxalin-6-yl)oxy)phenyl)-3-(trifluoromethyl)benzamide]
70 to 89%	> 5 µM	> 5 µM	70 to 89%	–	–	O=C(Nc1ccc(F)c(Oc2ccc3ncc(N4CCOCC4)nc3c2)c1)c1cccc(F)c1 [Compound C025, 3-fluoro-N-(4-fluoro-3-((3-morpholinoquinoxalin-6-yl)oxy)phenyl)benzamide]
70 to 89%	1 to 5 µM	> 5 µM	70 to 89%	–	–	O=C(Nc1cc(F)cc(Oc2ccc3ncc(N4CCOCC4)nc3c2)c1)c1cccc(F)c1 [Compound C027, 3-fluoro-N-(3-fluoro-5-((3-morpholinoquinoxalin-6-yl)oxy)phenyl)benzamide]
70 to 89%	< 1 µM	< 2 µM	70 to 89%	–	–	O=C(Nc1cc(F)cc(Oc2ccc3ncc(N4CCOCC4)nc3c2)c1)Nc1ccc(Cl)c(C(F)(F)F)c1 [Compound C033, 1-(4-chloro-3-(trifluoromethyl)phenyl)-3-(3-fluoro-5-((3-morpholinoquinoxalin-6-yl)oxy)phenyl)urea]
< 70%	> 5 µM	2 to 5 µM	70 to 89%	–	–	O=C(Nc1ccc(Cl)c(C(F)(F)F)c1)Nc1ccc(Oc2ccc3nccnc3c2)cc1F [Compound C095, 1-(4-chloro-3-(trifluoromethyl)phenyl)-3-(2-fluoro-4-(quinoxalin-6-yloxy)phenyl)urea]
70 to 89%	> 5 µM	> 5 µM	–	–	–	O=C(Nc1ccc(C(F)(F)F)cc1)Nc1ccc(Oc2ccc3nccnc3c2)cc1F [Compound C097, 1-(2-fluoro-4-(quinoxalin-6-yloxy)phenyl)-3-(4-(trifluoromethyl)phenyl)urea]
< 70%	> 5 µM	> 5 µM	–	–	–	O=C(Nc1ccc(Oc2ccc3nccnc3c2)cc1)c1ccc(Cl)c(C(F)(F)F)c1 [Compound C079, 4-chloro-N-(4-(quinoxalin-6-yloxy)phenyl)-3-(trifluoromethyl)benzamide]
